Laboratory results from PubChem BioAssay AID272 (DTP/NCI, 2004).
Several values for one entry are separate records, joined by “and”; a condition that tells them apart may be missing. Identical values can stand only once. Records with an inconclusive call do not appear.

Tested on: Lewis lung carcinoma i.m., BDF1 mice, T/C %
Assay: NCI In Vivo Anticancer Drug Screen. Data for tumor model Lewis Lung Carcinoma (intramuscular) in B6D2F1 (BDF1) mice
Outline: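 Tumour-bearing mice were dosed with compound, and either their survival or their tumour size was measured. Results were expressed relative to vehicle-treated controls as T/C.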

Compound: CCc1nc(N)nc(N)c1-c1ccc(Cl)cc1
- T/C (endpoint: mean tumor weight, dose: 64.0 mg/kg/injection, schedule: Q01DX009 (ip), vehicle: Klucel (hydroxypropylcellulose) (HPC), higher = larger tumour): 26 % of control
- T/C (endpoint: mean tumor weight, dose: 64.0 mg/kg/injection, schedule: Q01DX009 (sc), vehicle: Klucel (hydroxypropylcellulose) (HPC), higher = larger tumour): 41 % of control
- T/C (endpoint: mean tumor weight, dose: 64.0 mg/kg/injection, schedule: Q04DX003 (ip), vehicle: Klucel (hydroxypropylcellulose) (HPC), higher = larger tumour): 70 % of control and 93 % of control
- T/C (endpoint: mean tumor weight, dose: 64.0 mg/kg/injection, schedule: Q08DX002 (ip), vehicle: Klucel (hydroxypropylcellulose) (HPC), higher = larger tumour): 72 % of control and 81 % of control
- T/C (endpoint: mean tumor weight, dose: 128.0 mg/kg/injection, schedule: Q01DX001 (ip), vehicle: Klucel (hydroxypropylcellulose) (HPC), higher = larger tumour): 81 % of control
- T/C (endpoint: mean tumor weight, dose: 128.0 mg/kg/injection, schedule: Q01DX001 (oral), vehicle: Klucel (hydroxypropylcellulose) (HPC), higher = larger tumour): 82 % of control
- T/C (endpoint: mean tumor weight, dose: 128.0 mg/kg/injection, schedule: Q01DX001 (sc), vehicle: Klucel (hydroxypropylcellulose) (HPC), higher = larger tumour): 50 % of control
- T/C (endpoint: mean tumor weight, dose: 128.0 mg/kg/injection, schedule: Q04DX003 (ip), vehicle: Klucel (hydroxypropylcellulose) (HPC), higher = larger tumour): 71 % of control
- T/C (endpoint: median survival time, dose: 2.0 mg/kg/injection, schedule: Q06HX008 (ip), vehicle: Klucel (hydroxypropylcellulose) (HPC), higher = longer survival): 92 % of control
- T/C (endpoint: median survival time, dose: 4.0 mg/kg/injection, schedule: Q01DX009 (ip), vehicle: Klucel (hydroxypropylcellulose) (HPC), higher = longer survival): 95 % of control
- T/C (endpoint: median survival time, dose: 4.0 mg/kg/injection, schedule: Q01DX009 (sc), vehicle: Klucel (hydroxypropylcellulose) (HPC), higher = longer survival): 100 % of control
- T/C (endpoint: median survival time, dose: 4.0 mg/kg/injection, schedule: Q06HX004 (ip), vehicle: Klucel (hydroxypropylcellulose) (HPC), higher = longer survival): 107 % of control
- T/C (endpoint: median survival time, dose: 4.0 mg/kg/injection, schedule: Q06HX008 (ip), vehicle: Klucel (hydroxypropylcellulose) (HPC), higher = longer survival): 88 % of control and 104 % of control
- T/C (endpoint: median survival time, dose: 8.0 mg/kg/injection, schedule: Q01DX001 (sc), vehicle: Klucel (hydroxypropylcellulose) (HPC), higher = longer survival): 104 % of control
- T/C (endpoint: median survival time, dose: 8.0 mg/kg/injection, schedule: Q01DX009 (ip), vehicle: Klucel (hydroxypropylcellulose) (HPC), higher = longer survival): 104 % of control
- T/C (endpoint: median survival time, dose: 8.0 mg/kg/injection, schedule: Q01DX009 (oral), vehicle: Klucel (hydroxypropylcellulose) (HPC), higher = longer survival): 104 % of control
- T/C (endpoint: median survival time, dose: 8.0 mg/kg/injection, schedule: Q04DX003 (ip), vehicle: Klucel (hydroxypropylcellulose) (HPC), higher = longer survival): 94 % of control
- T/C (endpoint: median survival time, dose: 8.0 mg/kg/injection, schedule: Q06HX004 (ip), vehicle: Klucel (hydroxypropylcellulose) (HPC), higher = longer survival): 109 % of control
- T/C (endpoint: median survival time, dose: 8.0 mg/kg/injection, schedule: Q06HX008 (ip), vehicle: Klucel (hydroxypropylcellulose) (HPC), higher = longer survival): 100 % of control
- T/C (endpoint: median survival time, dose: 8.0 mg/kg/injection, schedule: Q06HX012 (ip), vehicle: Klucel (hydroxypropylcellulose) (HPC), higher = longer survival): 107 % of control
- T/C (endpoint: median survival time, dose: 8.0 mg/kg/injection, schedule: Q08DX002 (ip), vehicle: Klucel (hydroxypropylcellulose) (HPC), higher = longer survival): 94 % of control
- T/C (endpoint: median survival time, dose: 12.5 mg/kg/injection, schedule: Q01DX011 (ip), vehicle: steriod suspending solution, higher = longer survival): 103 % of control
- T/C (endpoint: median survival time, dose: 16.0 mg/kg/injection, schedule: Q01DX001 (ip), vehicle: Klucel (hydroxypropylcellulose) (HPC), higher = longer survival): 100 % of control
- T/C (endpoint: median survival time, dose: 16.0 mg/kg/injection, schedule: Q01DX001 (sc), vehicle: Klucel (hydroxypropylcellulose) (HPC), higher = longer survival): 96 % of control
- T/C (endpoint: median survival time, dose: 16.0 mg/kg/injection, schedule: Q01DX009 (ip), vehicle: Klucel (hydroxypropylcellulose) (HPC), higher = longer survival): 108 % of control
- T/C (endpoint: median survival time, dose: 16.0 mg/kg/injection, schedule: Q01DX009 (oral), vehicle: Klucel (hydroxypropylcellulose) (HPC), higher = longer survival): 100 % of control
- T/C (endpoint: median survival time, dose: 16.0 mg/kg/injection, schedule: Q01DX009 (sc), vehicle: Klucel (hydroxypropylcellulose) (HPC), higher = longer survival): 109 % of control
- T/C (endpoint: median survival time, dose: 16.0 mg/kg/injection, schedule: Q04DX003 (ip), vehicle: Klucel (hydroxypropylcellulose) (HPC), higher = longer survival): 92 % of control and 100 % of control
- T/C (endpoint: median survival time, dose: 16.0 mg/kg/injection, schedule: Q06HX008 (ip), vehicle: Klucel (hydroxypropylcellulose) (HPC), higher = longer survival): 98 % of control
- T/C (endpoint: median survival time, dose: 32.0 mg/kg/injection, schedule: Q01DX001 (ip), vehicle: Klucel (hydroxypropylcellulose) (HPC), higher = longer survival): 102 % of control
- T/C (endpoint: median survival time, dose: 32.0 mg/kg/injection, schedule: Q01DX001 (oral), vehicle: Klucel (hydroxypropylcellulose) (HPC), higher = longer survival): 104 % of control
- T/C (endpoint: median survival time, dose: 32.0 mg/kg/injection, schedule: Q01DX001 (sc), vehicle: Klucel (hydroxypropylcellulose) (HPC), higher = longer survival): 104 % of control
- T/C (endpoint: median survival time, dose: 32.0 mg/kg/injection, schedule: Q04DX003 (ip), vehicle: Klucel (hydroxypropylcellulose) (HPC), higher = longer survival): 92 % of control
- T/C (endpoint: median survival time, dose: 32.0 mg/kg/injection, schedule: Q08DX002 (ip), vehicle: Klucel (hydroxypropylcellulose) (HPC), higher = longer survival): 86 % of control and 102 % of control
- T/C (endpoint: median survival time, dose: 64.0 mg/kg/injection, schedule: Q01DX001 (oral), vehicle: Klucel (hydroxypropylcellulose) (HPC), higher = longer survival): 104 % of control
- T/C (endpoint: median survival time, dose: 64.0 mg/kg/injection, schedule: Q01DX001 (sc), vehicle: Klucel (hydroxypropylcellulose) (HPC), higher = longer survival): 90 % of control and 100 % of control
- T/C (endpoint: median survival time, dose: 64.0 mg/kg/injection, schedule: Q01DX009 (sc), vehicle: Klucel (hydroxypropylcellulose) (HPC), higher = longer survival): 104 % of control
- T/C (endpoint: median survival time, dose: 64.0 mg/kg/injection, schedule: Q04DX003 (ip), vehicle: Klucel (hydroxypropylcellulose) (HPC), higher = longer survival): 96 % of control and 109 % of control
- T/C (endpoint: median survival time, dose: 128.0 mg/kg/injection, schedule: Q01DX001 (ip), vehicle: Klucel (hydroxypropylcellulose) (HPC), higher = longer survival): 107 % of control
- T/C (endpoint: median survival time, dose: 128.0 mg/kg/injection, schedule: Q01DX001 (oral), vehicle: Klucel (hydroxypropylcellulose) (HPC), higher = longer survival): 102 % of control
